Measurements: patent US10092529B2, “Necrosis inhibitors” (National Institute of Biological Sciences, Beijing, priority 2014, dated 2018)
Read-outs that look alike come from different tables or passages of the source.

Experiments:
[1] = molecular target: hRIP1 kinase (recombinant full-length RIPK1 protein with N-terminal GST-tag) (Homo sapiens (Human), UniProt Q13546); test: Kinase assay of RIPK1 (ADP-Glo); assay type: biochemical; settings: for IC50: 161 nM RIPK1, 50 uM ATP, 20 uM MBP, 90 min
Protocol: Materials: Recombinant full-length RIPK1 protein with N-terminal GST-tag (Cat#R07-34G) was purchased from SignalChem. The ADP-Glo™ kinase assay kit (Cat#V9102) was from Promega. MBP (cat# M2295) protein and all the other chemicals were from Sigma. The 384-well assay plates (Cat#3674, white, opaque) were purchased from Corning.
Kinase activity assay and data analysis: The RIPK1 kinase assay was performed in white 384-well plate. The assay buffer contained 25 mM HEPES (pH7.2), 20 mM MgCl2, 12.5 mM MnCl2, 5 mM EGTA, 2 mM EDTA, 12.5 mM β-glycerol phosphate and 2 mM DTT. RIPK1 was first incubated with compounds or DMSO control for […], then ATP/MBP substrate mixture was added to initiate the reaction. The final concentration of RIPK1 was 161 nM, while the final concentration of ATP was 50 uM, and MBP 20 uM. After 90 min reaction at room temperature, the ADP-Glo reagent and detection solution were added following the technical manual of ADP-Glo™ kinase assay kit (Promega). The luminescence was measured on PerkinElmer Enspire. The data was analyzed using Graphpad Prism (GraphPad Software; www.graphpad.com). The curves were fitted using a non-linear regression model with a sigmoidal dose response.

[2] = system: HT-29 cells; test: Necrosis assay: TNF-α/Smac mimetic/z-VAD induced necrosis, cell viability by CellTiter-Glo; assay type: cell-based
Protocol: HT-29 cells were cultured in McCoy's 5A culture medium (Invitrogen). On day one, HT-29 cells were plated in 96-well assay plates at density of 2,500-3,500 cells per well. On day two, necrosis were induced by adding 20 ng/ml TNF-α (T), 100 nM Smac mimetic (S), and […] z-VAD (Z). At the same time, […] compound from a chemical library of ˜200,000 compounds was delivered into each well. After 24 hrs treatment, cell viability was determined by measuring ATP level using the CellTiter-Glo Luminescent Cell Viability Assay kit. A CellTiter-Glo Assay (Promega) was performed according to the manufacturer's instructions Luminescence was recorded with a PerkinElmer EnSpire Multimode Plate Reader. Survived cells were normalized to those cells treated with DMSO. Nec-1 was used as a positive control for screening necrosis inhibitors. Data are represented as mean±standard deviation of duplicates.
Dose-dependent inhibition of necrosis by compound #9 and the derivative compounds in HT-29 cells were determined by measuring ATP levels as described above.

[3] = Homo sapiens, necrosis induced by TNF-α/Smac mimetic/z-VAD, 24 hrs, ATP level, read-out: Cell viability assay, EC50
[4] = inhibition of necrosis, ATP levels, range given in nM, read-out: EC50 (necrosis activity)
[5] = Homo sapiens, inhibition of necrosis, ATP levels, range given in uM, read-out: EC50 (necrosis activity)
[6] = inhibition of necrosis, ATP levels, range given in uM, read-out: EC50 (necrosis activity)

Chain of hRIP1 kinase (recombinant full-length RIPK1 protein with N-terminal GST-tag) (Q13546 whole entry): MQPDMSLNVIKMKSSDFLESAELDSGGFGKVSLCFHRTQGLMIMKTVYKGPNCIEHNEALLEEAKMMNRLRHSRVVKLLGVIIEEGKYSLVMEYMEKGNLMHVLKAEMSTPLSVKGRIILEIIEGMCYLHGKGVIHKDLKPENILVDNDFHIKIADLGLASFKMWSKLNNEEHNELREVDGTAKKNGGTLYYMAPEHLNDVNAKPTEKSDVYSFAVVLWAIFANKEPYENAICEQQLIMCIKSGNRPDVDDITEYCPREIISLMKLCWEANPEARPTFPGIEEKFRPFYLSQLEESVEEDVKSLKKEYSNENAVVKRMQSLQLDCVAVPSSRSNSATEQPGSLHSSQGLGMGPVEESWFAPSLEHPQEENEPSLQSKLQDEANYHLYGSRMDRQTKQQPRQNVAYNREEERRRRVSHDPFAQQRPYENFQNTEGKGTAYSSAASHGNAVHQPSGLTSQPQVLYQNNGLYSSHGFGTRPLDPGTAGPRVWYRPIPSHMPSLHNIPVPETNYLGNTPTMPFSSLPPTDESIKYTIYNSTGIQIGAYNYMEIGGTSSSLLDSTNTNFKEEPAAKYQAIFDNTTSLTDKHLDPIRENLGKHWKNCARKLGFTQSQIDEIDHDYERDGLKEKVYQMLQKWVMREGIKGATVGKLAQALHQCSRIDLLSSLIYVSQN

Compound	EC50 [2, 4] [nM]	EC50 [2, 5] [nM]	also measured
CCC(C)(C)C(=O)N1CCC1c1ccccc1 (stereo not drawn) [Compound 2, 2,2-dimethyl-1-(2-phenylazetidin-1-yl)butan-1-one]	1 to 1000	–	IC50 [1]: 0.0348 µM; EC50 [2, 3]: 29.6 nM
CCC(C)(C)C(=O)N1CCCC1c1cc(F)cc(F)c1F (stereo not drawn) [Compound 10, 2,2-dimethyl-1-(2-(2,3,5-trifluorophenyl)pyrrolidin-1-yl)butan-1-one]	1 to 1000	–	IC50 [1]: 0.0225 µM; EC50 [2, 3]: 9.88 nM
CCC(C)(C)C(=O)N1C[C@@H](O)C[C@H]1c1ccccc1 [Compound 13, 1-((2S,4S)-4-hydroxy-2-phenylpyrrolidin-1-yl)-2,2-dimethylbutan-1-one]	–	1000 to 10000	inhibition at 2 µM [1]: 69%; EC50 [2, 3]: 2620 nM
CCC(C)(C)C(=O)N1C[C@H](O)C[C@H]1c1ccccc1 [Compound 15, 1-((2S,4R)-4-hydroxy-2-phenylpyrrolidin-1-yl)-2,2-dimethylbutan-1-one]	1 to 1000	–	IC50 [1]: 0.46 µM; EC50 [2, 3]: 396 nM
CCC(C)(C)C(=O)N1C(=O)C[C@H]1c1ccccc1 [Compound 24, (S)-1-(2,2-dimethylbutanoyl)-4-phenylazetidin-2-one]	1 to 1000	–	IC50 [1]: 0.0198 µM; EC50 [2, 3]: 7 nM
CCC(C)(C)C(=O)N1C(=O)CC1c1cccc(N=[N+]=[N-])c1 (stereo not drawn) [Compound 25, 4-(3-azidophenyl)-1-(2,2-dimethylbutanoyl)azetidin-2-one]	1 to 1000	–	IC50 [1]: 0.152 µM; EC50 [2, 3]: 556 nM
CCC(C)(C)C(=O)N1C(=O)N(C)C[C@H]1c1ccccc1 [Compound 31, (R)-3-(2,2-dimethylbutanoyl)-1-methyl-4-phenylimidazolidin-2-one]	1 to 1000	–	IC50 [1]: 1.06 µM; EC50 [2, 3]: 609 nM
C=CC(C)(C)C(=O)N1C(=O)C[C@H]1c1ccccc1 [Compound 38, (S)-1-(2,2-dimethylbut-3-enoyl)-4-phenylazetidin-2-one]	1 to 1000	–	IC50 [1]: 0.0137 µM; EC50 [2, 3]: 8.39 nM
C=CC(C)(C)C(=O)N1CCCC1c1ccccc1 (stereo not drawn) [Compound 69]	–	–	EC50 [2, 6]: 1000 to 1e+06 nM
CCC(C)(C)S(=O)(=O)N1CC[C@H]1c1ccccc1 [Compound 70]	–	–	EC50 [2, 6]: 1000 to 1e+06 nM
CCC(C)(C)C(=O)N1CCC1c1cccc(F)c1 (stereo not drawn) [Compound 71]	–	–	EC50 [2, 6]: 1000 to 1e+06 nM
CCC(C)(C)C(=O)N1CC=C[C@H]1c1ccccc1 [Compound 72]	–	–	EC50 [2, 6]: 1000 to 1e+06 nM
C=CC(C)(C)C(=O)N1CC=C[C@H]1c1ccccc1 [Compound 73]	–	–	EC50 [2, 6]: 1000 to 1e+06 nM
CCC(C)(C)C(=O)N1CCC=C[C@H]1c1ccccc1 [Compound 74]	–	–	EC50 [2, 6]: 1000 to 1e+06 nM
C=CC(C)(C)C(=O)N1CCC=C[C@H]1c1ccccc1 [Compound 75]	–	–	EC50 [2, 6]: 1000 to 1e+06 nM
CCC(C)(C)C(=O)N1OCCC1c1ccccc1 (stereo not drawn) [Compound 76]	–	–	EC50 [2, 6]: 1000 to 1e+06 nM
C=CC(C)(C)C(=O)N1OCCC1c1ccccc1 (stereo not drawn) [Compound 77]	–	–	EC50 [2, 6]: 1000 to 1e+06 nM
CCC(C)(C)C(=O)n1cccc1-c1ccccc1 [Compound 78, 2,2-dimethyl-1-(2-phenyl-1H-pyrrol-1-yl)butan-1-one]	–	1000 to 100000	–

Compound	EC50 [2, 4] [nM]	EC50 [2, 5] [nM]	also measured
CCC(C)(C)C(=O)N1CC[C@H](O)[C@H]1c1ccccc1 [Compound S1, 1-((2R,3S)-3-hydroxy-2-phenylpyrrolidin-1-yl)-2,2-dimethylbutan-1-one]	–	1000 to 10000	–
CCC(C)(C)C(=O)N1CC[C@@H](O)[C@H]1c1ccccc1 [Compound S2, 1-((2R,3R)-3-hydroxy-2-phenylpyrrolidin-1-yl)-2,2-dimethylbutan-1-one]	–	1000 to 100000	–
CCC(C)(C)C(=O)N1CCC(=O)[C@H]1c1ccccc1 [Compound S3, (R)-1-(2,2-dimethylbutanoyl)-2-phenylpyrrolidin-3-one]	–	1000 to 10000	–
CCC(C)(C)C(=O)N1C[C@@H](O)[C@H]1c1ccccc1 [Compound S4, 1-((2R,3R)-3-hydroxy-2-phenylazetidin-1-yl)-2,2-dimethylbutan-1-one]	–	1000 to 10000	–
CCC(C)(C)C(=O)N1C[C@H](O)[C@H]1c1ccccc1 [Compound S5, 1-((2R,3S)-3-hydroxy-2-phenylazetidin-1-yl)-2,2-dimethylbutan-1-one]	–	1000 to 100000	–
CCS(=O)(=O)N1CC[C@H]1c1ccccc1 [Compound S6, (S)-1-(ethylsulfonyl)-2-phenylazetidine]	–	1000 to 100000	–
CC(C)(C)[S+]([O-])N1CC[C@H]1c1ccccc1 (stereo partly drawn) [Compound S7, (2S)-1-(tert-butylsulfinyl)-2-phenylazetidine]	–	1000 to 10000	–
CC(C)(C)S(=O)(=O)N1CC[C@H]1c1ccccc1 [Compound S8, (S)-1-(tert-butylsulfonyl)-2-phenylazetidine]	–	1000 to 100000	–
CC(F)(F)C(C)(C)C(=O)N1CC[C@H]1c1ccccc1 [Compound S9]	1 to 1000	–	–
CC(F)(F)C(C)(C)C(=O)N1CCCC1c1ccccc1 (stereo not drawn) [Compound S10, 3,3-difluoro-2,2-dimethyl-1-(2-phenylpyrrolidin-1-yl) butan-1-one]	1 to 1000	–	–
CC(C)(C)C(=O)N1CCCC1c1ccccc1 (stereo not drawn) [Compound S11, 2,2-dimethyl-1-(2-phenylpyrrolidin-1-yl)propan-1-one]	1 to 1000	–	–
CC(C)(C)C(=O)N1CC[C@H]1c1ccccc1 [Compound S12, (S)-2,2-dimethyl-1-(2-phenylazetidin-1-yl)propan-1-one]	1 to 1000	–	–
CC(F)(F)C(C)(C)C(=O)N1CCC=C[C@H]1C1CCCCC1 [Compound S13]	–	1000 to 100000	–
CC(F)(F)C(C)(C)C(=O)N1C=CC=CC1C1CCCCC1 (stereo not drawn) [Compound S14]	–	1000 to 100000	–
CC(F)(F)C(C)(C)C(=O)N1C=CC=CC1c1ccccc1 (stereo not drawn) [Compound S15]	–	1000 to 100000	–
CC(F)(F)C(C)(C)C(=O)N1CC=C[C@H]1c1ccccc1 [Compound S16]	–	1000 to 100000	–
CC(F)(F)C(C)(C)C(=O)N1CCC=C[C@H]1c1ccccc1 [Compound S17]	–	1000 to 100000	–
